Experimental data published in patent US10478511B2, “Therapeutic agent for tauopathy and method for screening thereof” (National Center for Geriatrics and Gerontology, priority 2014, dated 2019).

Experiments:
tau proteins = conditions: tauopathy model mice, Non-Patent Document 3; cited from earlier work
human tau protein = target: T1, human tau protein (Homo sapiens, UniProt P10636); assay: Quantification of aggregated tau in brain of Drosophila expressing human tau in neurons (elav/Y; hTau/+); assay type: in vivo; conditions: hTau/+ flies, 1 mM in food, bred 1 month, versus non-administration group (100%), FIG. 4
T1 construct: expressed in transfected cells; host or cells: transgenic Drosophila (GAL4-UAS; gmr-gal4 compound eyes or elav^C155-gal4 neurons), fly heads
T1 sequence (P10636 1-441 isoform P10636-8): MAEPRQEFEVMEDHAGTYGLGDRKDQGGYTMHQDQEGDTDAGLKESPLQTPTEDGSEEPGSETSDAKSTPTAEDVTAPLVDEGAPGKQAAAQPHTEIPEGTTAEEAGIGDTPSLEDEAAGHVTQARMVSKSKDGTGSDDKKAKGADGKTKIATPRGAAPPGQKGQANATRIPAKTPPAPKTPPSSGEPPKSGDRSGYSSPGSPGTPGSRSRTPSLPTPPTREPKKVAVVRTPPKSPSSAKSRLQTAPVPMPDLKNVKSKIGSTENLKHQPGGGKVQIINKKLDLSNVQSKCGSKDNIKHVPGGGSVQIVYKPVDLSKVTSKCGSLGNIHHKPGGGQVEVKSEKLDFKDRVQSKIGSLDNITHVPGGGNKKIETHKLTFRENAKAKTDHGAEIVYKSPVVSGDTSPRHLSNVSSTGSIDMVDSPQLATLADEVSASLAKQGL
Method: Thereafter, the recovered heads were cryopreserved at −80° C. […] The obtained supernatant was recovered in another ultracentrifuge tube.
Using the screening system established in 3 above, the tau protein aggregation-inhibiting effect of rose bengal, which is a fluorone dye, was evaluated. […] Thereafter, the accumulation of aggregated tau in brain was quantified according to the procedures in (2) above.

[1] = system: Drosophila expressing human tau in neurons (elav/Y; hTau/+); assay: Motor function (climbing assay, negative gravitaxis) of Drosophila expressing human tau in neurons; assay type: in vivo; conditions: 1 mM in food, versus non-administration group, FIG. 5
Method: (§1) Male F1 Drosophila one to three days after emergence were bred under an environment consisting of a temperature of 25±3° C., a humidity of 60±10%, and a light-dark cycle of 12 hours. […] The flies were transferred into a vial filled with fresh food once every two weeks.
The motor function of Drosophila of was measured by performing climbing assay and evaluating negative gravitaxis. The climbing assay was carried out under the following conditions. Drosophila was transferred into an empty vial containing no food, and the vial was then hit, so that flies fell to the bottom. Thereafter, the movement of the flies climbing up the wall was captured on video. The flies, which were below the line drawn at the position 3 cm from the bottom 10 seconds after they had fallen to the bottom, were defined as “flies that could not climb”, and flies, which were above the aforementioned line, were defined as “flies that could climb”. The number of flies of each type was counted. The total number of flies in the vial was set at 100%, and the percentage of the flies that could climb was calculated.

wild-type Drosophila [2] = assay: Survival rate of wild-type Drosophila; conditions: wild-type flies, 1 mM in food, versus non-administration group, FIG. 7
Method: as §1
Drosophila were bred under the conditions described in (1) above, and the number of surviving flies was counted every three days, and the survival rate was then calculated.
As a control, the Drosophila in the non-administration group was used.

[3] = system: Drosophila expressing human tau in mushroom body neurons (mb/Y; hTau/+); assay: Olfactory memory (discrimination learning test with odor and electric shock) of Drosophila expressing human tau in mushroom body neurons; assay type: in vivo; conditions: hTau/+ flies, administered over 1 week, versus non-administration, FIG. 9
Method: as §1

wild-type Drosophila [4] = conditions: in vivo
Method: as §1

Structure (SMILES)	accumulation of tau proteins in the brains (tau proteins)	accumulated amount of aggregated tau in brain (human tau protein)	motor function (percentage of flies that could climb) [1]	survival rate (wild-type Drosophila [2])	olfactory memory [3]	olfactory memory (wild-type Drosophila [4])
O=C1NC(=O)C(=O)C(=O)N1 [alloxan]	reduced					
CN(C)c1ccc2nc3ccc(=[N+](C)C)cc-3sc2c1 [methylene blue]		reduction	recovered	significantly reduced		
O=C([O-])c1c(Cl)c(Cl)c(Cl)c(Cl)c1-c1c2cc(I)c(=O)c(I)c-2oc2c(I)c([O-])c(I)cc12.[Na+].[Na+] [rose bengal]		reduction	recovered		significantly improved	no significant change
